From paper PMC12615753, “Glutathione as a taste modulator: molecular mechanisms of interaction with umami and sweet taste receptors” (Food Chemistry: Molecular Sciences, 2025)

Target: T1, hTAS1R1 H71A/rTAS1R3 (UniProt Q7RTX1+Q923K1, H71A)
T1 construct: The cDNA coding region of rTAS1R3 was synthesized with optimized-codon usage for human expression; expressed in transfected cells; host or cells: HEK293T/17
T1 sequence (Q7RTX1 21-841 H71A): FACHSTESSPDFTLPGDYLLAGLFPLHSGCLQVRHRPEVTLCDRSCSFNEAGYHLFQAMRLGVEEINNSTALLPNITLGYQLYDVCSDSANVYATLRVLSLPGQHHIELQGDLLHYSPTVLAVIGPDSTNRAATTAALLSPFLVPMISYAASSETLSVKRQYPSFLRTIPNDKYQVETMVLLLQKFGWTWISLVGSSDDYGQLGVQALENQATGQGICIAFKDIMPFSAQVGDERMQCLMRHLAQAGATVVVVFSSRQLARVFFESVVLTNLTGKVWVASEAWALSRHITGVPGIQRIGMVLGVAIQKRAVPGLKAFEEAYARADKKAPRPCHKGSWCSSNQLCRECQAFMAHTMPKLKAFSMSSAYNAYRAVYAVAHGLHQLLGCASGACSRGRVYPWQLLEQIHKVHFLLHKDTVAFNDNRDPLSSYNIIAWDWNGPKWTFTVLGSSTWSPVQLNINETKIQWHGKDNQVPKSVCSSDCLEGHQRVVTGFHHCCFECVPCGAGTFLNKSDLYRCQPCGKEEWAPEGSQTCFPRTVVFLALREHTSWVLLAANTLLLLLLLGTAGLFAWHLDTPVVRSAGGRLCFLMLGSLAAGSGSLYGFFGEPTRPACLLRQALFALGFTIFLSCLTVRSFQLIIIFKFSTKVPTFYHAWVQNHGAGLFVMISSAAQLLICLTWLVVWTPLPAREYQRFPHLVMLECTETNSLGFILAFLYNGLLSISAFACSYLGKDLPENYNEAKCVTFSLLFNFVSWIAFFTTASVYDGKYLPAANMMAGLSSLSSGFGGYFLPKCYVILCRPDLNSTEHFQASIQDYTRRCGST
T1 sequence (Q923K1 21-858): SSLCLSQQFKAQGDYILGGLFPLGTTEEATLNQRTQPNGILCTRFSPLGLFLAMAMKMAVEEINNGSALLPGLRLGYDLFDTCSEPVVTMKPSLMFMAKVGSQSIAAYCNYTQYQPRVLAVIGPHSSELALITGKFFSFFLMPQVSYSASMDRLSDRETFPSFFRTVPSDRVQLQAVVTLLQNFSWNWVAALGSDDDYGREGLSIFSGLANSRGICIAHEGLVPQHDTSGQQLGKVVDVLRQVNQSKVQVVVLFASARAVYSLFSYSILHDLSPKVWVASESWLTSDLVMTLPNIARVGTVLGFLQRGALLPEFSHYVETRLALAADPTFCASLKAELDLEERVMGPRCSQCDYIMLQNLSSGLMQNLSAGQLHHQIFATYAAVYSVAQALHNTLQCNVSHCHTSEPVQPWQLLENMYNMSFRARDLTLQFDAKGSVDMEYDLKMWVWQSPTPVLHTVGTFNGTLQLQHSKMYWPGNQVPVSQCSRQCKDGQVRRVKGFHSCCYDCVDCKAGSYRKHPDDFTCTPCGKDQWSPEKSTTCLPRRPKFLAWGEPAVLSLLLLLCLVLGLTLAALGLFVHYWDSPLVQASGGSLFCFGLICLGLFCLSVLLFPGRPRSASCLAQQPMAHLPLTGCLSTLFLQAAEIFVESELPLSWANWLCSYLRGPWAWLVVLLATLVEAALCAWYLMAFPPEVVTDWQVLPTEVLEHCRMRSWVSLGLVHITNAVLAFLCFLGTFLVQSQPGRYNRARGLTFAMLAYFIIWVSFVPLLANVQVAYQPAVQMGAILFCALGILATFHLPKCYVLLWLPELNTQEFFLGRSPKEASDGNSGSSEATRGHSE
Experiment: Calcium assay, hTAS1R1 mutant co-expressed with rTAS1R3
Format: cell-based, human, rat

Row | response to the agonist alone, vs WT (H71A) | SMILES | EC50 [µM] | effect of the added compound (1 mM) on the response to L-Glu (H71A) | Max ∆F/F0 (H71A, GSH) | R1 = mutant EC50/WT EC50 (H71A, GSH)
1 | – | N[C@@H](CCC(=O)N[C@@H](CS)C(=O)NCC(=O)O)C(=O)O [GSH, γ-L-glutamyl-L-cysteinyl-glycine] | 2030 ± 416 | did not affect | 0.44 ± 0.03 | 0.8
2 | strongly affected | CCCC(CCC)NC(=O)c1ccc2c(c1)OCO2 [S807, N-(heptan-4-yl)benzo[d][1,3]dioxole-5-carboxamide, reference compound] | – | – | – | –
